According to patent US7989420B2, “Smooth muscle relaxation” (New York Medical College, priority 2006, dated 2011):

What was measured:
[1] = test system: sGC; experiment: Western blot of sGC expression in BPA; type: cell-based, bovine; details: organ culture with 100 μM ALA, Western analysis
Procedure: Rings from studies on contractile function were snap-frozen in liquid nitrogen, crushed and homogenized in lysis buffer (50 mM Tris-HCl, pH 8.0, 150 mM NaCl, 1 mM EDTA, 1% Triton X-100, 0.5% sodium deoxycholate, 0.1% sodium dodecyl sulfate, 1% of a protease inhibitor cocktail (Sigma) and 1% of a phosphatase inhibitor cocktail (Sigma). The protease inhibitor cocktail included 4-(2-aminoethyl)benzenesulfonyl floride hydrocholride, aprotinin, bestatin hydrochloride, N-(trans-epoxsuccinyl)-L-leucine-4-guanidinobutylamide, leupeptine hemisulfate, pepstatin and the phosphatase inhibitor cocktail included sodium orthovandate, sodium molybdate, sodium tartarate, and imidazole. Protein concentration was determined and 30 μg of protein samples were prepared in electrophoresis sample buffer containing 3% SDS and 3% β-mercaptoethanol and were separated using a 12% gel SDS-PAGE electrophoresis. Membranes were blocked for 1 h in TBST-5% milk and incubated overnight with phospho-VASP antibodies (diluted 1:1000). Membranes were exposed to a secondary horse radish peroxidase linked antibody and visualized with an ECL kit (Amersham). […] Membranes were subsequently washed, blocked and detected for total VASP. […] Expression of sGC was detected with β-sGC subunit antibodies (diluted 1:2000), employing anti-rabbit secondary antibodies, and a protocol where membranes were blocked for 2 h. […]

[2] = test system: bovine pulmonary arteries (BPA); experiment: Protoporphyrin IX-associated tissue fluorescence in organ cultured BPA rings; type: cell-based; details: for BPA fluorescence: 100 μM ALA without or with 100 μM deferoxamine
Procedure: (§1) Organoid Culture Isolated Arteries for Heme Modulation. Intralobar BPA were isolated from slaughterhouse-derived bovine calf lungs, cleaned from surrounding tissue, and placed in 37° C. Dulbecco's Modified Eagle Medium (DMEM) containing 10% fetal bovine serum, penicillin, streptomycin, and fungizone (complete media). The arteries were isolated and cut into rings ˜2 mm in diameter and width, and the endothelium was removed by gentle rubbing of the lumen. Various compounds (i.e. ALA, FeSO4(Fe), deferoxamine) were added as described in the Results to various experimental groups, and these arteries were organ cultured overnight for 24 h in complete media in a 37° C.-5% CO2 incubator. Preliminary experiments on the time course for detection protoporphyrin IX accumulation and the effects of organ culture with doses of ALA in the 10-100 μM concentration range on contractile function, and minimizing the duration of organ culture were considerations that contributed to selecting the 24 h culture period used in this study.
(§2) Determination Changes in Protoporphyrin 1× and Heme Levels. Methods for the detection of protoporphyrin IX tissue fluorescence developed for the detection in cancerous cells with tissue depths of up to several millimeters (27) were adapted for detecting changes in the endogenous levels of protoporphyrin IX in BPA rings which were organ cultured with ALA. When excited with light in the regions of 505 and 540 nm, protoporphyrin IX has an emission in the region of 635 nm. […] Increases in protoporphyrin IX were measured using an excitation wavelength of 528±20 nm and emission of 620±40 nm in intact vessels. Ring segments of approximately equal size (˜4 mm in diameter and length) were centered on the bottom of the ˜6 mm diameter wells of a 96 well microplate with 200 μl of Krebs containing with 10 mM Hepes buffer (pH 7.4), and the fluorescence was measured from the bottom surface of the plate using BIOTEK fluorescent microplate reader (Model FLx800i). Data are reported in the arbitrary fluorescence units measured (AU), after subtraction of the low levels of background fluorescence observed in the absence of BPA.

[3] = test system: aorta; experiment: Contraction to PDBu of aorta from rats treated with ALA in vivo; set-up: species or system rat; details: single dose 60 mg/kg ALA i.p., 24 hours after treatment
Procedure: (§3) The rats were pretreated with 60 mg/kg ALA or with a saline vehicle (i.p.). After 24 hours they were anesthetized with 50 mg/kg sodium pentobarbital and the aorta was removed for in vitro studies. Isolated aortic rings were studied for changes in protoporphyrin IX fluorescence and force under the same conditions similar to those used for bovine pulmonary arteries described above, except that 1 gram of passive force was used.

[4] = test system: bovine bronchi; experiment: Force generation to acetylcholine in organ cultured bovine bronchi; type: cell-based; details: organ culture with 0.1 mM ALA for 24 hrs vs absence of ALA
Procedure: Studies on the Regulation of Contractile Function. Following the overnight incubation, arterial rings were mounted on wire hooks attached to Grass (FT03) force displacement transducers for measurement of changes in isometric force. Tension was adjusted to 5 g, which is the optimal passive force for maximal contraction. Changes in force were recorded on a Grass polygraph (model 7), while vessels were incubated in 10-ml baths (Metro Scientific), which were individually thermostated (37° C.) in Krebs buffer gassed with 21% O2-5% CO2 (balance N2) in the absence of compounds used to modulate BPA protoporphyrin IX levels. Arteries were incubated for 1 h during which passive tension was adjusted to maintain 5 grams. […] The effects of ODQ on relaxation to NO was determined by first contracting organ cultured control and ODQ-treated BPA with 1 μM 5-HT (after the initial exposure to increasing concentrations of 5-HT and a 30 min equilibration in Krebs).
Bovine bronchi were isolated from the same lungs used for pulmonary arteries, and studied for changes in protoporphyrin IX fluorescence and force under the same conditions as bovine pulmonary arteries described above. Superoxide was detected by the chemiluminescence produced by 5 μM lucigenin, which was detected by photon counting in a scintillation counter.

[5] = test system: bovine pulmonary arteries (BPA); experiment: Isometric force generation to serotonin (5-HT) in organ cultured BPA rings; type: cell-based; details: 24 h organ culture
Procedure: as §1
Studies on the Regulation of Contractile Function. Following the overnight incubation, arterial rings were mounted on wire hooks attached to Grass (FT03) force displacement transducers for measurement of changes in isometric force. Tension was adjusted to 5 g, which is the optimal passive force for maximal contraction. Changes in force were recorded on a Grass polygraph (model 7), while vessels were incubated in 10-ml baths (Metro Scientific), which were individually thermostated (37° C.) in Krebs buffer gassed with 21% O2-5% CO2 (balance N2) in the absence of compounds used to modulate BPA protoporphyrin IX levels. Arteries were incubated for 1 h during which passive tension was adjusted to maintain 5 grams. The vessels were then depolarized with Krebs containing 123 mM KCl (High K^+) in place of NaCl, followed by re-equilibration with Krebs, prior to exposure to the experimental protocols. Following the wash with Krebs buffer after the High K^+ treatment, and a 30 min equilibration, BPA were then contracted with serotonin (5-HT) in a dose dependent manner to determine the response to this contractile agent. In some experiments, BPA were pretreated with the sGC inhibitor, 10 μM ODQ, for 15 min before contraction with serotonin. The effects of ODQ on relaxation to NO was determined by first contracting organ cultured control and ODQ-treated BPA with 1 μM 5-HT (after the initial exposure to increasing concentrations of 5-HT and a 30 min equilibration in Krebs).

[6] = test system: bovine bronchi; experiment: Protoporphyrin IX fluorescence in organ cultured bovine bronchi; type: cell-based; details: organ culture with 0.1 mM ALA
Source text: as §2
Bovine bronchi were isolated from the same lungs used for pulmonary arteries, and studied for changes in protoporphyrin IX fluorescence and force under the same conditions as bovine pulmonary arteries described above. […]

[7] = humans, factor which limited the doses of ALA, reference (13); cited from earlier work
[8] = test system: endothelium-rubbed aorta; experiment: Protoporphyrin IX fluorescence in aorta of rats treated with ALA in vivo; set-up: species or system rat; details: single dose 60 mg/kg ALA i.p., 24 hours after treatment, vs saline-injected rats
Procedure: as §3

Structure (SMILES): NCC(=O)CCC(=O)O [ALA, δ-aminolevulinic acid]
- levels of sGC relative to BPA organ cultured in the absence of ALA [1]: 71±19%
- fluorescence potentially originating from protoporphyrin IX ([2]; 10 μM ALA, 24 h organ culture): did not cause a detectable increase in fluorescence
- increase in fluorescence over the background fluorescence of BPA ([2]; 50 μM and 100 μM ALA, 24 h organ culture): up to 2 fold
- BPA fluorescence ([2]; after 8 h of organ culture): 1015±79 AU
- BPA fluorescence ([2]; after 24 h of organ culture): 1658±122 AU
- concentration of protoporphyrin IX solution producing similar fluorescence ([2]; increase in BPA fluorescence caused by 100 μM ALA): ~3 µM
- tissue fluorescence potentially originating from protoporphyrin IX ([2]; organ culture with 100 μM ALA, after 16 and 24 h of incubation): increase in tissue fluorescence
- contraction of aorta to 10 μM PDBu [3]: decreased contraction
- force generation to 10 μM acetylcholine (ACh) [4]: inhibits (relaxes) force generation
- force generation to 5-HT ([5]; 10 μM ALA, appeared to depress force at higher doses of 5-HT): did not reach statistical significance
- decrease in force generation to 5-HT ([5]; 50 μM and 100 μM ALA): 50-90%
- force generation to 5-HT ([5]; 100 μM ALA, 0.1-10 μM 5-HT in the absence of ALA): markedly inhibit force generation
- protoporphyrin IX fluorescence [6]: time-dependent increase in protoporphyrin IX fluorescence
- systemic and pulmonary artery pressure [7]: reduction in systemic and pulmonary artery pressure
- protoporphyrin IX fluorescence in endothelium-rubbed aorta [8]: increased in protoporphyrin IX fluorescence
